Activity calls are given as the source filed them.
Key:
[1] = test system: Chaperonin GroEL (Escherichia coli (strain K12)), P0A6F5 [I493C]; assay: Inhibition of Escherichia coli 60 kDa chaperonin groEL I493C mutant ATPase activity assessed as inorganic phosphate release at 50 uM by Malachite green complex formation assay
Escherichia coli [2] = assay: (§1) Inhibition of Escherichia coli 60 kDa chaperonin groEL refolding activity assessed as recovered enzyme activity of bovine rhodanese at 50 uM
[3] = test system: Chaperonin GroEL (Escherichia coli (strain K12)), P0A6F5 [I493C]; assay: as §1
[4] = test system: Chaperonin GroEL (Escherichia coli (strain K12)), P0A6F5 [I493C]; assay: Inhibition of Escherichia coli 60 kDa chaperonin groEL I493C mutant
Escherichia coli [5] = assay: Inhibition of Escherichia coli 60 kDa chaperonin groEL ATPase activity assessed as inorganic phosphate release at 50 uM by Malachite green complex formation assay
Escherichia coli [6] = assay: (§2) Inhibition of Escherichia coli 60 kDa chaperonin groEL refolding activity assessed as recovered enzyme activity of pig heart malate dehydrogenase at 50 uM
[7] = test system: Chaperonin GroEL (Escherichia coli (strain K12)), P0A6F5 [I493C]; assay: as §2

Measured: Activity

Chain of Chaperonin GroEL (Escherichia coli (strain K12)), P0A6F5 [I493C] (P0A6F5 whole entry I493C): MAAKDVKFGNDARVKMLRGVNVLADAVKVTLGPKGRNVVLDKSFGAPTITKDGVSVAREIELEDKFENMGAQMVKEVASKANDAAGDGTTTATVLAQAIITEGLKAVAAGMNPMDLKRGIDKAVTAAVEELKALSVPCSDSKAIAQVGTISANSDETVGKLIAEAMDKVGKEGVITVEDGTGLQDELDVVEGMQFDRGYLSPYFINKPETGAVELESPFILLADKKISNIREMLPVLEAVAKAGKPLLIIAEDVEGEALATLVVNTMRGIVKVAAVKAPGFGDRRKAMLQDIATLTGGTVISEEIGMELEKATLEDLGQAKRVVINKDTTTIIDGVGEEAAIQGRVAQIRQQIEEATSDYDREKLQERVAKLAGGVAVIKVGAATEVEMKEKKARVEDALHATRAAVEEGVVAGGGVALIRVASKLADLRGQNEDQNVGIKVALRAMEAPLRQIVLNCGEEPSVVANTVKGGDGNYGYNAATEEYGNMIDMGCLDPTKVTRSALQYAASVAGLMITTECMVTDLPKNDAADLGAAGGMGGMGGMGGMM

CC(C)(C)n1nc(-c2ccc(NC(=O)C3CCCC3)cc2)c2c(N)ncnc21
active: all assays above

— ChEMBL document CHEMBL1143292, “A small molecule inhibitor selective for a variant ATP-binding site of the chaperonin GroEL” (Bioorg Med Chem Lett, 2009)
